Assay results as given in US9616101B2, “Differentiation marker and differentiation control of eye cell” (Kyoto Prefectural Public University Corporation, priority 2012, dated 2017).
“Also recorded” adds a separate entry of the source.

What was measured:
Type in all cases: cell-based
[1] = test system: GPR49/LGR5 expression; experiment: GPR49/LGR5 expression in human corneal tissue treated with Hedgehog signal modulators; conditions: 100 ng/ml rhShh, 10 μM purmorphamine, 10 μM cyclopamine, 3 days
From the text: (§1) A corneal tissue was embedded with OCT compound (catalog No.: 4583; Sakura Finetek, Tokyo, Japan), and frozen in liquid nitrogen to prepare a frozen corneal tissue section. The frozen block was sliced to 8 μm, applied on a silane-coating slide, and air-dried. For preparing the whole tissue section, a Descemet's membrane containing a corneal endothelial cell was peeled from a corneal tissue, allowed to stand in ice-cooled 100% acetone for 30 seconds, applied on a silane-coating slide, and air-dried. As a cultured corneal endothelial cell, a cell cultured on a LabTek 8-well plastic chamber slide was used. Ice-cooled 100% acetone was added to a corneal tissue and the cultured cell, the resultant was allowed to stand at 4° C. for 15 minutes to fix the cell. After shaking and washing with 0.15% TritonX/PBS-, 1% bovine serum albumin (catalog No.: A4503BSA; Sigma-Aldrich, St. Louis, Mo.) was added, and allowed to stand at room temperature for 30 minutes to perform blocking. A primary antibody was diluted with 1% BSA, and incubated at room temperature for 1 hour. As a primary antibody to be used, anti-rabbit GPR49/LGR5 (catalog No.: GTX71143; 1: 200; GeneTex Inc., San Antonio, Tex.), anti-rabbit Nestin (catalog No.: PRB-570C; 1: 200; COVANCE, Berkeley, Calif.), anti-mouse ABCG2 (catalog No.: NC_236; 1: 2; Kamiya biomedical CO., Seattle, Wash. USA), anti-mouse Ki-67 (catalog No.: 556003; 1: 200 BD Pharmingen™ NJ, USA), anti-rabbit Na^+/K^+ ATPase (catalog No.: A132; 1: 100; Zymed), and anti-rabbit ZO1 (Zymed Laboratries Inc., South San Francisco, Calif.) were used. The resultant was washed with 0.15% Triton/PBS- twice, and PBS- once.
For extracting RNA from a corneal tissue and a cultured cell, RNeasy Mini Kit (catalog No.: 74106; QIAGEN, Valencia, Calif.) was used. Added was 1 μl of OligodT Primer (catalog No.: 18418-020; Invitrogen) per 1 μg of the extracted RNA, and the resultant was incubated at 70° C. for 2 minutes, and immediately ice-cooled. […] The resulting data were analyzed by ABI PRISM (registered trademark) 7000 Sequence Detection System. […]

[2] = test system: cultured human corneal endothelial cell; experiment: Ki-67 immunostaining and cell morphology of cultured human corneal endothelial cell treated with Hedgehog signal modulators; conditions: primary human corneal endothelial cell, 2 μM cyclopamine, 3 days; for Ki-67 expression (cell proliferation) as compared with a control: 100 ng/ml rhShh, 2 μM purmorphamine
Protocol: (§2) After 3 days, immunostain of GPR49/LGR5 and Ki-67 was performed. In addition, RNA of a corneal endothelial cell incubated under the same conditions was extracted, and the amount of expression of mRNA was measured by real time PCR.

[3] = test system: GPR49/LGR5 expression; experiment: GPR49/LGR5 expression in cultured human corneal endothelial cell treated with Hedgehog signal modulators; conditions: primary human corneal endothelial cell; 100 ng/ml rhShh, 2 μM purmorphamine, 2 μM cyclopamine; 3 days
Protocol: as §2

[4] = test system: human corneal endothelial cell; experiment: Ki67 immunostaining of human corneal endothelial cells incubated with RSPO1 to 4
From the text: as §1
A secondary antibody was diluted with a mixed solution of 1% BSA and 0.15% TrironX/PBS-, and incubated at room temperature for 30 minutes. As a secondary antibody to be used, Alexa™ Fluor 488-labeled (conjugated) goat anti-rabbit IgG (catalog No.: A11034; 1: 1500; Molecular Probe-Invitrogen) and Alexa™ Fluor 488-labeled (conjugated) goat anti-mouse IgG (catalog No.: A11029; 1: 1500; Molecular Probe-Invitrogen) were used. The secondary antibody was shaken and washed with 0.15% Triton/PBS- twice, and PBS- once, subjected to nuclear staining with propidium iodide (catalog No.: SP29004-41; PI; Nacalai Tesque, Inc. Kyoto, Japan), and embedded while covered with a cover glass.
In order to investigate a relationship between R-sporadin 1 (RSPO1), R-spondin 2 (RSPO2), R-spondin 3 (RSPO3), or R-spondin 4 (RSPO4) and differentiation of a corneal endothelial cell, the relationship was studied using RSPO1. Reagents used are as follows. • RSPO1 R&D systems catalog No.: 4645-RS • RSPO2 R&D systems catalog No.: 3266-RS • RSPO3 R&D systems catalog No.: 3500-RS • RSPO4 R&D systems catalog No.: 4575-RS
Then, for the purpose of investigating the influence of RSPO on cell proliferation, RSPO1 to 4 were incubated into a human corneal endothelial cell under conditions of 37° C. and 5% CO2 for 1 day. Thereafter, Ki-67 being a cell proliferation marker was immunostained.

## CC1=C2C[C@H]3[C@@H](CC=C4C[C@@H](O)CC[C@@]43C)[C@@H]2CC[C@]12O[C@@H]1C[C@H](C)CN[C@H]1[C@H]2C [cyclopamine]
[1]
  expression of GPR49/LGR5 as compared with a control (immunostaining; same result at the mRNA expression level): clear expression suppression
[2]
  Ki-67 expression (cell proliferation) as compared with a control: suppression of cell proliferation; also recorded: not upregulated
  cell morphology: abnormality of cell morphology; also recorded: could not maintain a normal hexagonal form

## c1ccc2c(Oc3nc(Nc4ccc(N5CCOCC5)cc4)c4ncn(C5CCCCC5)c4n3)cccc2c1 [purmorphamine, N-(4-morpholinophenyl)-2-(1-naphthyloxy)-9-cyclohexyl-9H-purine-6-amine]
[1]
  expression of GPR49/LGR5 as compared with a control (immunostaining; same result at the mRNA expression level): remarkable increase (upregulation)
[2]
  Ki-67 expression (cell proliferation) as compared with a control: elevated; also recorded: upregulated

## rhShh: recombinant human Sonic hedgehog, ligand of the Hedgehog pathway binding to Ptch1
[3]
  cell expressing GPR49/LGR5: confirmed
[1]
  expression of GPR49/LGR5 as compared with a control (immunostaining; same result at the mRNA expression level): remarkable increase (upregulation)
[2]
  Ki-67 expression (cell proliferation) as compared with a control: elevated
[2]; listed as SHH
  Ki-67 expression (cell proliferation) as compared with a control: upregulated

B1: RSPO2: human recombinant R-spondin 2, R&D systems catalog No. 3266-RS (protein, listed as Homo sapiens)
chain: MQFRLFSFALIILNCMDYSHCQGNRWRRSKRASYVSNPICKGCLSCSKDNGCSRCQQKLFFFLRREGMRQYGECLHSCPSGYYGHRAPDMNRCARCRIENCDSCFSKDFCTKCKVGFYLHRGRCFDECPDGFAPLEETMECVEGCEVGHWSEWGTCSRNNRTCGFKWGLETRTRQIVKKPVKDTILCPTIAESRRCKMTMRHCPGGKRTPKAKEKRNKKKKRKLIERAQEQHSVFLATDRANQ
[4]; RSPO2 50 ng/ml, 100 ng/ml (FIG. 12)
  Ki67-positive cell rate as compared with a control: slightly increased

B2: RSPO3: human recombinant R-spondin 3, R&D systems catalog No. 3500-RS (protein, listed as Homo sapiens)
chain: MHLRLISWLFIILNFMEYIGSQNASRGRRQRRMHPNVSQGCQGGCATCSDYNGCLSCKPRLFFALERIGMKQIGVCLSSCPSGYYGTRYPDINKCTKCKADCDTCFNKNFCTKCKSGFYLHLGKCLDNCPEGLEANNHTMECVSIVHCEVSEWNPWSPCTKKGKTCGFKRGTETRVREIIQHPSAKGNLCPPTNETRKCTVQRKKCQKGERGKKGRERKRKKPNKGESKEAIPDSKSLESSKEIPEQRENKQQQKKRKVQDKQKSVSVSTVH
[4]; RSPO3 50 ng/ml, 200 ng/ml (FIG. 13)
  Ki67-positive cell rate as compared with a control: slightly increased

B3: RSPO4: human recombinant R-spondin 4, R&D systems catalog No. 4575-RS (protein, UniProt Q2I0M5 20-234, looked up)
R-spondin-4: LNRRKKQVGTGLGGNCTGCIICSEENGCSTCQQRLFLFIRREGIRQYGKCLHDCPPGYFGIRGQEVNRCKKCGATCESCFSQDFCIRCKRQFYLYKGKCLPTCPPGTLAHQNTRECQGECELGPWGGWSPCTHNGKTCGSAWGLESRVREAGRAGHEEAATCQVLSESRKCPIQRPCPGERSPGQKKGRKDRRPRKDRKLDRRLDVRPRQPGLQP
[4]; RSPO4 50 ng/ml, 500 ng/ml (FIG. 14)
  Ki67-positive cell rate as compared with a control: slightly increased
